Data on 4 compounds can be found in patent US20140194353A1, “COMPOSITIONS AND METHODS FOR THE TREATMENT OF NERVOUS DISORDERS ASSOCIATED WITH DIABETES” (Joslin Diabetes Center, Inc., priority 2010, published 2014).

For one assay, the system named is cultured neurons. The assay can be described thus: Pharmacological inhibition of insulin signaling pathways, cholesterol synthetic gene expression. Type of assay: cell-based, mouse.
Assay [1] concerns primary mouse cultured cortical neurons and glia. Briefly: Insulin stimulation of primary cultured cortical neurons and glia, qPCR of cholesterologenic genes. Type of assay: cell-based. The protocol:
(§1) For qPCR, RNA was isolated using an RNeasy kit (Qiagen). As a template, 1 μg (for tissue) or 0.2 μg (for glia and neurons) of total RNA was reverse-transcribed in 50 μl using a High Capacity cDNA Reverse Transcription Kit (Applied Biosystems) according to the manufacturer's instructions. Three microliters of diluted (1/4) reverse transcription reaction was amplified with specific primers (300 nM each) in a 25 μl PCR with a SYBR Green PCR Master Mix (Applied Biosystems). Analysis of gene expression was done in the ABI PRISM 7000 sequence detector with an initial denaturation at 95° C. for 10 minutes followed by 40 PCR cycles, each cycle consisting of 95° C. for 15 seconds and 60° C. for 1 minute, and SYBR Green fluorescence emissions were monitored after each cycle. For each gene, mRNA expression was calculated relative to Tbp (mouse) or ribosomal 18S (human) expression as an internal control.
To dissect the cell type and factors regulating the changes in cholesterol biosynthesis, neuron and glial cells (astrocytes) were isolated and cultured from the cortices of 16-day-old C57Bl/6 mouse embryos and 1-day-old neonates, respectively. Briefly, the cerebral cortex was dissected from 0-1 day old for glia and day 16 embryonic C57Bl/6 mice under aseptic conditions. Large blood vessels were carefully removed under the microscope. […]

Assay [2] has as its system Pomc, Agrp, Npy expression. The assay can be described thus: qPCR of neuropeptides regulating appetite in hypothalamus after insulin ICV injection. The format is in vivo, mouse. Particulars: STZ-diabetic mice. The protocol:
as §1
To assess the effects of insulin, we directly administered insulin into the cerebral ventricles of STZ-induced diabetic mice by 3 injections of insulin into a catheter placed in the lateral ventricle. […] Food intake was measured immediately before the ICV injection. Four hours after the last injection, blood glucose levels were measured, and the hypothalami collected.
On the technique in general: Real-time PCR tracks product formation cycle by cycle.

Assay [3] concerns SREBP-2 and its downstream cholesterologenic genes in the hypothalamus. The assay can be described thus: qPCR of Srebf2 and cholesterologenic genes in hypothalami of STZ-diabetic mice. Type of assay: in vivo, mouse. How it is done: (§2) For STZ-induced diabetes and systemic insulin therapy experiments, 7-week-old C57Bl/6 mice were treated with a single intraperitoneal (i.p.) injection (200 μg/g body weight) of STZ (Sigma). After 2 days, the mice were separated into two groups. Half remained untreated, and the other half were treated with subcutaneous insulin pellets (LinShin, Toronto, Canada) for one week to control blood glucose levels. For phlorizin (PHZ) treatment, 8-week-old C57Bl/6 mice were treated with STZ. PHZ (Sigma) was dissolved in a solution containing 10% ethanol, 15% DMSO, and 75% saline and was injected subcutaneously (0.4 g/kg) twice daily for 10 days starting 8 days after the STZ injection. Control mice were injected with the same volume of vehicle.
as §1, with “Three microliters of diluted (1/4) reverse transcription reaction was amplified with specific primers (300 nM each) in a 25 μl PCR with a SYBR Green PCR Master Mix (Applied Biosystems).” left out
To determine whether hyperglycemia or insulin insufficiency was predominantly responsible for the above-observed suppression of cholesterol synthesis pathway in the diabetic mouse brain, we treated the STZ-induced diabetic mice with phlorizin (PHZ), a flavonoid which can decrease blood glucose levels by inhibition of renal glucose transport without restoring insulin secretion using the methods disclosed in Example 1. […] Control mice were injected with the same volume of vehicle. mRNA levels were then assessed by qPCR as disclosed in Example 1. […]

Assay [4] relates to STZ-diabetic mice. Briefly: Blood glucose levels in STZ-diabetic mice. The format is in vivo, mouse. How it is done: as §2
To determine whether hyperglycemia or insulin insufficiency was predominantly responsible for the above-observed suppression of cholesterol synthesis pathway in the diabetic mouse brain, we treated the STZ-induced diabetic mice with phlorizin (PHZ), a flavonoid which can decrease blood glucose levels by inhibition of renal glucose transport without restoring insulin secretion using the methods disclosed in Example 1. Additionally, phlorizin (PHZ) treatment was performed using 8-week-old C57Bl/6 mice previously treated with STZ. […] Control mice were injected with the same volume of vehicle. mRNA levels were then assessed by qPCR as disclosed in Example 1. […]

In assay [5] the test system is STZ-diabetic mice. Briefly: Food intake after ICV injection in STZ-diabetic mice. The format is in vivo, mouse. The note with it: insulin ICV injection. From the text:
To assess the effects of insulin, we directly administered insulin into the cerebral ventricles of STZ-induced diabetic mice by 3 injections of insulin into a catheter placed in the lateral ventricle. Briefly, seven-week-old C57Bl/6 mice were placed in a stereotactic device under anesthesia, and a 26-gauge guide cannula (Plastics One Inc., Roanoke, Va.) was inserted into the right lateral cerebral ventricle (1.0 mm posterior, 1.0 mm lateral, and 2.0 mm ventral to the bregma). A dummy stylet cannula was inserted into each cannula until used. After a 1 week recovery, mice received a single i.p. injection of STZ to induce diabetes. Twelve days later, the mice received three ICV injections of insulin (3 mU in 2 μL) or the same volume of PBS (9 AM, 7 PM and 9 AM the following day) through an internal cannula using a Hamilton microsyringe. Food intake was measured immediately before the ICV injection. Four hours after the last injection, blood glucose levels were measured, and the hypothalami collected.

Regarding `N#CC(=C(/N)Sc1ccccc1N)/C(C#N)=C(\N)Sc1ccccc1N` [U0126], in the assay with cultured neurons (inhibitor given prior to insulin stimulation), the “insulin's effect on Hmgcr induction” value was “partially suppressed”.
For the compound `Cn1cc(C2=C(c3ccc(Cl)cc3Cl)C(=O)NC2=O)c2ccccc21` [SB216763], the “expression of cholesterol synthetic genes” value in the assay with cultured neurons (GSK3 inhibitor treatment, mimicked insulin's effects) was “broad increase in expression of cholesterol synthetic genes”.
As for insulin, the “stimulation of expression of all cholesterologenic genes” value in assay [1] (insulin 10-100 nM, 6 hours, qPCR) fell in the range of 30 to 270%. Besides, the “cholesterol synthetic gene expression” value in assay [1] (primary cultured glia and neurons, 18 days in vitro, insulin 6 h) is listed as “induces cholesterol synthetic gene expression”. In assay [2], the “expression of neuropeptides involved in feeding behavior (Pomc, Agrp, Npy)” value is given as “partially normalized”. Moreover, the “changes in cholesterologenic genes in hypothalamus of diabetic mice” value in assay [3] (subcutaneous insulin pellets for one week, qPCR) is on record as “reversed”. For the same compound, the “suppression of SREBP-2 pathway in the hypothalamus” value in assay [3] (three ICV injections of insulin (3 mU in 2 μL), 4 hours after last injection) is “almost completely normalized”. For the same compound, the blood glucose levels entry with STZ-diabetic mice [4] (three ICV injections of insulin (3 mU), 4 hours after last injection) is reported as “did not affect blood glucose levels”. For the same compound, the “hyperphagia induced by STZ diabetes (food intake)” value in the assay on STZ-diabetic mice [5] is on record as “partly reversed the hyperphagia”.
As for `O=C(CCc1ccc(O)cc1)c1c(O)cc(O)cc1O[C@@H]1O[C@H](CO)[C@@H](O)[C@H](O)[C@H]1O` [PHZ, phlorizin], the “suppression of SREBP-2 and its downstream genes in the hypothalamus” value in assay [3] (PHZ 0.4 g/kg s.c. twice daily for 10 days, qPCR) is on record as “did not, however, reverse suppression”. In addition, the “hyperglycemia (blood glucose)” value in the assay on STZ-diabetic mice [4] (PHZ 0.4 g/kg s.c. twice daily for 10 days) was “efficiently normalized hyperglycemia”.
